Laboratory results from patent US20200165194A1, “ADDITIVE COMPOSITION FOR CULTURE MEDIUM, ADDITIVE COMPOUND FOR CULTURE MEDIUM, AND METHOD FOR CULTURE OF CELLS OR TISSUE USING SAME” (NISSAN CHEMICAL CORPORATION, priority 2017, published 2020).
Like-named read-outs stand apart in the source and are kept apart here.

What was measured:
[1] = system: a plurality of cancer cell lines; test: Various human cancer cells-2, summary over the cell lines (Experimental Example 6); assay type: cell-based; conditions: cancer cell lines under three-dimensional conditions
Method: (§1) Various human-derived cancer cells were precultured (single layer culture) in respective media shown below. […] The above-mentioned cells in the logarithmic growth phase were washed with PBS, a 0.25 w/v % trypsin-1 mmol/L EDTA (ethylenediaminetetraacetic acid) solution (manufactured by Wako Pure Chemical Industries, Ltd.) was added, and adherent cells were detached by incubating at 37° C. for 1-5 min. Each medium was added and the mixture was centrifuged. After resuspension in the same medium, each cell was recovered.
(§2) The aforementioned various cells were suspended in respective deacylated gellan gum-containing or not containing media (deacylated gellan gum concentration was 0.015 w/v %), and seeded in a 96 well low attachment U-bottom plate (manufactured by Corning, #4520, deacylated gellan gum-free medium), or a low attachment flat bottom plate (manufactured by Corning, #3474, deacylated gellan gum-containing medium) at a cell concentration of 700-12000 cells/90 μL/well (all 3D culture). […] The amount of each compound solution to be added was 10 μL/well. As a control, a DMSO solution dissolved in a medium was added (DMSO final concentration 0.1%). […] When compared with the compound no-addition (control), one showing a value of not more than 119% as -, one showing a value of not less than 120% as ◯, and one showing a value of not less than 150% as ⊚ are shown in the eleventh table and the twelfth table. Unperformed test is left blank.

[2] = system: human alveolar basal epithelial adenocarcinoma-derived cell line A549; test: Various human cancer cells-2, 3D culture, ATP assay (Experimental Example 6); assay type: cell-based; conditions: Homo sapiens, A549, 96 h, 4 days, read-out: number of viable cells (RLU), relative value to control (100%)
Method: as §1, §2

[3] = system: human ovarian cancer cell line SKOV3; test: as above; assay type: cell-based; conditions: Homo sapiens, SK-OV-3, 96 h, 4 days, read-out: number of viable cells (RLU), relative value to control (100%)
Method: as §1, §2

[4] = system: human ovarian cancer cell line SKOV3; test: Action on SKOV3 cell-2: 3D (deacylated gellan gum) and 2D culture, EGF medium, ATP assay (Experimental Example 3); conditions: for viability at 1 µM / viability at 5 µM / viability at 10 µM / viability at 20 µM: Homo sapiens, SK-OV-3, 96 h, 4 days, compound non-addition = 100%
Method: According to the method of patent document 1 (WO 2014/017513), a composition of McCoy's 5a medium (manufactured by Sigma-Aldrich) containing 0.015% (w/v) deacylated gellan gum (KELCOGEL CG-LA, manufactured by Sansho Co., Ltd.) and 15% (v/v) FBS, 30 ng/mL human EGF (manufactured by PEPROTECH) was prepared using FCeM-series Preparation Kit (manufactured by Wako Pure Chemical Industries, Ltd.). In a single layer culture, a non-addition medium composition not containing deacylated gellan gum was prepared. Then, human ovarian cancer cell line SKOV3 (manufactured by DS PHARMA BIO MEDICAL) was suspended in the above-mentioned medium composition added with deacylated gellan gum, and dispensed into the wells of a 384 well flat bottom Ultr-low Attachment surface microplate (manufactured by Corning Incorporated, #3827) at 1000 cells/36 μL/well (three-dimensional culture (3D)). In a single layer culture (2D), human ovarian cancer cell line SKOV3 was suspended in the above-mentioned medium composition not containing deacylated gellan gum, and dispensed into the wells of a 384 well flat bottom microplate (manufactured by Corning Incorporated, #3712) at 400 cells/36 μL per well. After dispensing, the compound to be used in the present invention dissolved in dimethyl sulfoxide (DMSO) was added by 4 μL each at a final concentration of 0, 1, 5, 10, 20 μM, and continuously cultured for 4 days. Each plate was cultured in a standing state in a CO2 incubator (37° C., 5% CO2) for 4 days. An ATP reagent (40 μL) (CellTiter-Glo (registered trade mark) Luminescent Cell Viability Assay, manufactured by Promega) was added to the culture medium on day 4, and the mixture was stirred by a plateshaker (manufactured by AS ONE Corporation, Micro plate mixer NS-P) at room temperature for 15 min. The luminescence intensity (RLU value) was measured by EnSpire (manufactured by Perkin Elmer) and the luminescence value of the medium alone was subtracted to measure the number of viable cells.

plural animal cell lines = test: Animal cell lines, summary over the cell lines (Experimental Example 15); assay type: cell-based; conditions: animal cell lines under three-dimensional conditions
Description: Various animal cell lines were precultured (single layer culture) as follows in respective media. Chinese hamster ovary-derived cell line CHO-K1 (manufactured by DS PHARMA BIO MEDICAL, 10% fetal bovine serum (FBS, manufactured by Corning)-containing Ham's F-12 medium (manufactured by Fujifilm Wako Pure Chemical Corporation)), Cercopithecus aethiops kidney epithelium-derived cell line Vero (purchased from JCRB cell bank, 5% FBS-containing Medium 199 medium (manufactured by Life Technologies)). The above-mentioned cells in the logarithmic growth phase were washed with PBS, a 0.25 w/v % trypsin-1 mmol/L EDTA (ethylenediaminetetraacetic acid) solution (manufactured by Fujifilm Wako Pure Chemical Corporation) was added, and adherent cells were detached by incubating at 37° C. for 3 min. Each medium was added and the mixture was centrifuged and resuspended in the same medium.
The aforementioned various animal cells were suspended in respective deacylated gellan gum-containing or not containing media (deacylated gellan gum concentration was 0.02 w/v % in Ham's F-12 medium, 0.015 w/v % in Medium 199 medium), and seeded in a 96 well low attachment U-bottom plate (manufactured by Corning, #4520, deacylated gellan gum-free medium), or a low attachment flat bottom plate (manufactured by Corning, #3474, deacylated gellan gum-containing medium) at a cell concentration of 700-2000 cells/90 μL/well (all 3D culture). […] The amount of each compound solution to be added was […]. As a control, a DMSO solution dissolved in a medium was added (DMSO final concentration 0.1%). […] When compared with the compound non-addition (control), one showing a value of not more than 119% as -, one showing a value of not less than 120% as ◯, and one showing a value of not less than 150% as ⊚ are shown in the twenty-third table and the twenty-fourth table.

[5] = system: Bone marrow-derived human mesenchymal stem cells (BM-hMSC); test: Human mesenchymal stem cell-2: 3D, EZSPHERE and 2D culture, ATP assay (Experimental Example 10); assay type: cell-based; conditions: for viability at 1 µM / viability at 5 µM / viability at 10 µM / viability at 20 µM: Homo sapiens, Mesenchymal stem cells, 96 h, BM-hMSC, 4 days, non-addition = 100%, read-out: relative value of RLU (number of viable cells)
Method: Bone marrow-derived human mesenchymal stem cells (BM-hMSC, manufactured by PromoCell) were precultured by a single layer culture method (2D) using a mesenchymal stem cell proliferation medium (manufactured by PromoCell). In three-dimensional culture method (3D), hMSC was suspended in a medium composition added with deacylated gellan gum, and seeded in a […] flat bottom Ultr-low Attachment surface plate (manufactured by Corning Incorporated, #3474) at 6000 cells/90 μL/well. In the three-dimensional culture method using EZSPHERE (EZSPHERE), hMSC was suspended in a deacylated gellan gum-free medium composition, and seeded in a 96-well EZSPHERE plate (manufactured by AGC TECHNO GLASS CO., LTD., #4860-900) at 2000 cells/90 μL/well. In 2D, hMSC was suspended in a deacylated gellan gum-free medium composition, and seeded in a 96-well flat bottom plate (manufactured by Corning Incorporated, #3585) at 2000 cells/90 μL/well. […] As a control, DMSO was added at a final concentration of 0.1%.

[6] = low attachment flat bottom plate (gellan gum medium)
[7] = read-out: relative value of RLU (number of viable cells), 2D single layer culture
[8] = read-out: relative value of RLU (number of viable cells), 3D culture (deacylated gellan gum)

CC/C(=N\NC(=O)NCc1ccccc1)c1ccc(O)c(C)c1O [k-1:I-1]
proliferation activity (in words) [1]: promoted proliferation activity in a plurality of cancer cell lines
viability at 5 µM ([2]; low attachment U-bottom plate): < 119%
viability at 10 µM ([2]; low attachment U-bottom plate): < 119%
viability at 5 µM [2, 6]: < 119%
viability at 10 µM [2, 6]: 120 to 150%
viability at 5 µM ([3]; low attachment U-bottom plate): 120 to 150%
viability at 10 µM ([3]; low attachment U-bottom plate): 120 to 150%
viability at 5 µM [3, 6]: < 119%
viability at 10 µM [3, 6]: 120 to 150%
viability at 1 µM [4, 7]: 99%
viability at 5 µM [4, 7]: 98%
viability at 10 µM [4, 7]: 94%
viability at 20 µM [4, 7]: 92%
viability at 1 µM [4, 8]: 106%
viability at 5 µM [4, 8]: 111%
viability at 10 µM [4, 8]: 123%
viability at 20 µM [4, 8]: 141%
cell proliferation promoting effect (in words) ([4]; single layer culture (2D) of SKOV3 cells): a favorable cell proliferation promoting effect was not observed
cell proliferation promoting effect (in words) ([4]; three-dimensional culture (3D) of SKOV3 cells): exhibited cell proliferation promoting effect at a wide concentration range
proliferation activity (in words) (plural animal cell lines): promoted proliferation activity in plural animal cell lines
viability at 1 µM ([5]; 2D): 107%
viability at 5 µM ([5]; 2D): 98%
viability at 10 µM ([5]; 2D): 104%
viability at 20 µM ([5]; 2D): 107%
viability at 1 µM ([5]; 3D (deacylated gellan gum)): 100%
viability at 5 µM ([5]; 3D (deacylated gellan gum)): 123%
viability at 10 µM ([5]; 3D (deacylated gellan gum)): 150%
viability at 20 µM ([5]; 3D (deacylated gellan gum)): 177%
viability at 1 µM ([5]; EZSPHERE plate): 101%
viability at 5 µM ([5]; EZSPHERE plate): 120%
viability at 10 µM ([5]; EZSPHERE plate): 144%
viability at 20 µM ([5]; EZSPHERE plate): 163%
proliferation activity (in words) ([5]; three-dimensional cell culture conditions): promoted proliferation activity of BM-hMSC
